Results from US9783523B2, “N-acylimino heterocyclic compounds” (BASF SE, priority 2013, dated 2017).

How the values were obtained:
Format in all cases: in vivo
[1] = system: Myzus persicae; test: Green peach aphid (Myzus persicae), systemic control, liquid artificial diet under membrane in 96-well microtiter plates; conditions: 72 h, read-out: mortality in comparison with untreated controls
Source text: General conditions: If not otherwise specified, most test solutions are to be prepared as follows: The active compound is to be dissolved at the desired concentration in a mixture of 1:1 (vol:vol) distilled water:acteon. Further, the test solutions are to be prepared at the day of use (and, if not otherwised specified, in general at concentrations wt/vol).
For evaluating control of green peach aphid (Myzus persicae) through systemic means, the test unit consists of 96-well-microtiter plates containing liquid artificial diet under an artificial membrane.
The compounds are formulated using a solution containing 75% v/v water and 25% v/v DMSO. Different concentrations of formulated compounds are pipetted into the aphid diet, using a custom built pipetter, at two replications.
After application, 5-8 adult aphids are placed on the artificial membrane inside the microtiter plate wells. The aphids are then allowed to suck on the treated aphid diet and incubated at about 23+1° C. and about 50+5% relative humidity for 3 days. Aphid mortality and fecundity is then visually assessed.

[2] = system: Aphis craccivora; test: Cowpea aphid (Aphis craccivora), potted cowpea plants sprayed; conditions: 72 h, read-out: mortality in comparison with untreated controls
Description: The active compound is dissolved at the desired concentration in a mixture of 1:1 (vol:vol) distilled water:acetone. Surfactant (Alkamuls® EL 620) is added at a rate of 0.1% (vol/vol). The test solution is prepared at the day of use.
Potted cowpea plants are colonized with approximately 50-100 aphids of various stages by manually transferring a leaf tissue cut from infested plant 24 hours before application. Plants are sprayed after the pest population has been recorded. Treated plants are maintained on light carts at about 28° C. Percent mortality is assessed after 72 hours.

[3] = system: Nezara viridula; test: Green soldier stink bug (Nezara viridula), sprayed soybean pods in Petri dishes; conditions: 120 h, read-out: mortality in comparison with untreated controls
Description: The active compound is dissolved at the desired concentration in a mixture of 1:1 (vol:vol) distilled water:aceteone. Surfactant (Kinetic HV) is added at a rate of 0.01% (vol/vol). The test solution is prepared at the day of use.
Soybean pods were placed in 90×50 mm glass Petri dishes lined with moist filter paper and inoculated with ten late 3rd instar N. viridula. Using a hand atomizer, an approximately 2 ml solution is sprayed into each Petri dish. Treated cups were kept at about 25-26° C. and relative humidity of about 65-70%. Percent mortality was recorded after 5 days.

[4] = system: Bemisia argentifolii; test: Silverleaf whitefly (Bemisia argentifolii) adults, sprayed cotton plants; conditions: 72 h, read-out: mortality in comparison with untreated controls
Description: (§1) The active compounds were formulated in cyclohexanone as a 10,000 ppm solution supplied in 1.3 ml ABgene® tubes. These tubes were inserted into an automated electrostatic sprayer equipped with an atomizing nozzle and they served as stock solutions for which lower dilutions were made in 1:1 (vol:vol) water: aceton. A nonionic surfactant (Kinetic®) was included in the solution at a volume of 0.01% (v/v).
Cotton plants at the cotyledon stage (one plant per pot) were sprayed by an automated electrostatic plant sprayer equipped with an atomizing spray nozzle. The plants were dried in the sprayer fume hood and then removed from the sprayer. Each pot was placed into a plastic cup and 10 to 12 whitefly adults (approximately 3-5 days old) were introduced. The insects were collected using an aspirator and 0.6 cm, nontoxic Tygon® tubing (R-3603) connected to a barrier pipette tip. The tip, containing the collected insects, was then gently inserted into the soil containing the treated plant, allowing insects to crawl out of the tip to reach the foliage for feeding. Cups were covered with a reusable screened lid (150-micron mesh polyester screen PeCap from Tetko, Inc.). […] Mortality was assessed 3 days after treatment, compared to untreated control plants.

[5] = system: Spodoptera eridania; test: Southern armyworm (Spodoptera eridania), sprayed lima bean plants; conditions: 96 h, read-out: mortality in comparison with untreated controls
Description: as §1, with “in” for “in 1.3 ml ABgene®”, “The” for “These”, “50% acetone:50% water (v/v).” for “1:1 (vol:vol) water: aceton.”
Lima bean plants (variety Sieva) were grown 2 plants to a pot and selected for treatment at the 1st true leaf stage. Test solutions were sprayed onto the foliage by an automated electrostatic plant sprayer equipped with an atomizing spray nozzle. The plants were dried in the sprayer fume hood and then removed from the sprayer. Each pot was placed into perforated plastic bags with a zip closure. About 10 to 11 armyworm larvae were placed into the bag and the bags zipped closed. Test plants were maintained in a growth room at about 25° C. and about 20-40% relative humidity for 4 days, avoiding direct exposure to fluorescent light (24 hour photoperiod) to prevent trapping of heat inside the bags. Mortality and reduced feeding were assessed 4 days after treatment, compared to untreated control plants.

[6] = system: Nilaparvata lugens; test: Rice brown plant hopper (Nilaparvata lugens), sprayed rice seedlings; conditions: 72 h, read-out: mortality in comparison with untreated controls
Description: (§2) Rice seedlings are cleaned and washed 24 hours before spraying. The active compounds is formulated in 50:50 acetone:water (vol:vol) and 0.1% vol/vol surfactant (EL 620) was added. Potted rice seedlings are sprayed with 5 ml test solution, air dried, placed in cages and inoculated with 10 adults. Treated rice plants are kept at about 28-29° C. and relative humidity of about 50-60%. Percent mortality is recorded after 72 hours.

[7] = system: Dichromothrips corbetti; test: Orchid thrips (Dichromothrips corbetti), floral-immersion technique; conditions: 72 h, read-out: mortality in comparison with untreated controls
Description: Dichromothrips corbetti adults used for bioassay are obtained from a colony maintained continuously under laboratory conditions. For testing purposes, the test compound is diluted in a 1:1 mixture of acetone:water (vol:vol), plus 0.01% vol/vol Alkamuls® EL 620 surfactant.
Thrips potency of each compound is evaluated by using a floral-immersion technique. Plastic petri dishes are used as test arenas. All petals of individual, intact orchid flowers are dipped into treatment solution and allowed to dry. Treated flowers are placed into individual petri dishes along with about 20 adult thrips. The petri dishes are then covered with lids. All test arenas are held under continuous light and a temperature of about 28° C. for duration of the assay. After 3 days, the numbers of live thrips are counted on each flower, and along inner walls of each petri dish. The percent mortality is recorded 72 hours after treatment.

[8] = system: Anthonomus grandis; test: Boll weevil (Anthonomus grandis), eggs on insect diet in 24-well microtiter plates; conditions: 120 h, read-out: mortality in comparison with untreated controls
Description: The compounds were formulated in 3:1 (vol:vol) water:DMSO.
For evaluating control of boll weevil (Anthonomus grandis) the test unit consisted of 24-well-microtiter plates containing an insect diet and 20-30 A. grandis eggs. Different concentrations of formulated compounds were sprayed onto the insect diet at 20 μl, using a custom built micro atomizer, at two replications. After application, the microtiter plates were incubated at 23±1° C. and 50±5% relative humidity for 5 days. Egg and larval mortality was then visually assessed.

[9] = system: Heliothis virescens; test: Tobacco budworm (Heliothis virescens), eggs on insect diet in 96-well microtiter plates; conditions: 120 h, read-out: mortality in comparison with untreated controls
Description: For evaluating control of tobacco budworm (Heliothis virescens) the test unit consisted of 96-well-microtiter plates containing an insect diet and 15-25 H. virescens eggs.
The compounds were formulated using a solution containing 75% v/v water and 25% v/v DMSO. Different concentrations of formulated compounds were sprayed onto the insect diet at 10 μl, using a custom built micro atomizer, at two replications.
After application, microtiter plates were incubated at about 28+1° C. and about 80+5% relative humidity for 5 days. Egg and larval mortality was then visually assessed.

[10] = system: Ceratitis capitata; test: Mediterranean fruitfly (Ceratitis capitata), eggs on insect diet in microtiter plates; conditions: 120 h, read-out: mortality in comparison with untreated controls
Description: For evaluating control of Mediterranean fruitfly (Ceratitis capitata) the test unit consisted of microtiter plates containing an insect diet and 50-80 C. capitata eggs.
The compounds were formulated using a solution containing 75% v/v water and 25% v/v DMSO. Different concentrations of formulated compounds were sprayed onto the insect diet at 5 μl, using a custom built micro atomizer, at two replications.
After application, microtiter plates were incubated at about 28±1° C. and about 80±5% relative humidity for 5 days. Egg and larval mortality was then visually assessed.

[11] = system: Megoura viciae; test: Vetch aphid (Megoura viciae), sprayed bean leaf disks in microtiter plates; conditions: foliar, 144 h, read-out: mortality in comparison with untreated controls
Description: The active compounds were formulated in 3:1 (vol:vol) water:DMSO with different concentrations of formulated compounds.
Bean leaf disks were placed into microtiterplates filled with 0.8% agar-agar and 2.5 ppm OPUS™. The leaf disks were sprayed with 2.5 μl of the test solution and 5 to 8 adult aphids were placed into the microtiter plates which were then closed and kept at 23±1° C. and 50±5% relative humidity under fluorescent light for 6 days. Mortality was assessed on the basis of vital, reproduced aphids. Aphid mortality and fecundity was then visually assessed.

[12] = system: Nephotettix virescens; test: Rice green leafhopper (Nephotettix virescens), sprayed rice seedlings; conditions: 72 h, read-out: mortality in comparison with untreated controls
Description: as §2, with “compounds are” for “compounds is”, “acetone:water (vol:vol),” for “acetone:water (vol:vol)”, “620) is” for “620) was”

[13] = system: Plutella xylostella; test: Diamond back moth (Plutella xylostella), dipped cabbage leaves; conditions: 72 h, read-out: mortality in comparison with untreated controls
Description: The active compound is dissolved at the desired concentration in a mixture of 1:1 (vol:vol) distilled water:aceteone. Surfactant (Alkamuls® EL 620) is added at a rate of 0.1% (vol/vol). The test solution is prepared at the day of use.
Leaves of cabbage were dipped in test solution and air-dried. Treated leaves were placed in petri dish eslined with moist filter paper and inoculated with ten 3rd instar larvae. Mortality was recorded 72 hours after treatment. Feeding damages were also recorded using a scale of 0-100%.

[14] = system: Aphis gossypi; test: Cotton aphid (Aphis gossypi), infested cotton plants sprayed; conditions: 120 h, read-out: mortality in comparison with untreated controls
Description: as §1, with “water:aceton.” for “water: aceton.”
Cotton plants at the cotyledon stage were infested with aphids prior to treatment by placing a heavily infested leaf from the main aphid colony on top of each cotyledon. Aphids were allowed to transfer overnight to accomplish an infestation of 80-100 aphids per plant and the host leaf was removed. The infested plants were then sprayed by an automated electrostatic plant sprayer equipped with an atomizing spray nozzle. The plants were dried in the sprayer fume hood, removed from the sprayer, and then maintained in a growth room under fluorescent lighting in a 24-hr photoperiod at 25° C. and 20-40% relative humidity. Aphid mortality on the treated plants, relative to mortality on untreated control plants, was determined after 5 days.

CO/N=C/C(=O)/N=c1\ccccn1Cc1ccc(Cl)nc1 [Compound I-15]
≥ 75%: mortality at 2500 ppm [1] | mortality at 500 ppm [2] | mortality at 500 ppm [3] | mortality at 300 ppm [4] | mortality at 300 ppm [5] | mortality at 500 ppm [6] | mortality at 500 ppm [7] | mortality at 2500 ppm [8] | mortality at 2500 ppm [9] | mortality at 2500 ppm [10] | mortality at 2500 ppm [11] | mortality at 300 ppm [12] | mortality at 500 ppm [13] | mortality at 300 ppm [14]
